Source: patent US20230381321A1, “CAMPTOTHECIN CONJUGATES” (priority 2022, published 2023)
Where two headings read alike, the source gives them in different places.

How the values were obtained:
Assay type in all cases: cell-based
[1] = tested on: pancreatic cancer cells (BxPC3); test: In vitro potency (CellTiter-Glo, 96 h) on BxPC3; settings: Homo sapiens, BXPC-3, 96 h, read-out: BxPC3 IC50
Outline: (§1)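 STR-verified lines, <2 mo post-thaw; log-phase cells plated in RPMI 1640/20% FBS for 24 h; […] serial dilutions (made at 4x, diluted into wells) added; luminescence read for growth inhibition.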

[2] = tested on: anaplastic large cell lymphoma cells (Karpas299); test: In vitro potency (CellTiter-Glo, 96 h) on Karpas299; settings: Homo sapiens, KARPAS-299, 96 h, read-out: Karpas299 IC50
Outline: as §1

[3] = In vitro potency (CellTiter-Glo, 96 h) on Ls174T; settings: Homo sapiens, LS174T, read-out: Ls174T IC50
Outline: as §1

[4] = tested on: anaplastic large cell lymphoma cells (DELBVR); test: In vitro potency (CellTiter-Glo, 96 h) on DELBVR; settings: 96 h, read-out: DELBVR IC50
Outline: as §1

[5] = tested on: melanoma cells (A2058); test: In vitro potency (CellTiter-Glo, 96 h) on A2058; settings: Homo sapiens, A2058, 96 h, read-out: A2058 IC50
Outline: as §1

[6] = tested on: anaplastic large cell lymphoma cells (DEL); test: In vitro potency (CellTiter-Glo, 96 h) on DEL; settings: 96 h, read-out: DEL IC50
Outline: as §1

[7] = tested on: renal carcinoma cells (786-O); test: In vitro potency (CellTiter-Glo, 96 h) on 786-O; settings: Homo sapiens, 786-0, 96 h, read-out: 786-O IC50
Outline: as §1

[8] = tested on: acute myeloid leukemia cells (MOLM-13); test: In vitro potency (CellTiter-Glo, 96 h) on MOLM-13; settings: Homo sapiens, MOLM-13, 96 h, read-out: MOLM-13 IC50
Outline: as §1

[9] = tested on: breast cancer cells (MDA-MB-231); test: In vitro potency (CellTiter-Glo, 96 h) on MDA-MB-231; settings: Homo sapiens, MDA-MB-231, 96 h, read-out: MDAMB 231 IC50
Outline: as §1

[10] = tested on: B-lymphocyte cancer cells (SU-DHL4); test: In vitro potency (CellTiter-Glo, 96 h) on SU-DHL4; settings: Homo sapiens, SU-DHL-4, 96 h, read-out: SU-DHL-4 IC50
Outline: as §1

[11] = tested on: Hodgkin's lymphoma cells (L540cy); test: In vitro potency (CellTiter-Glo, 96 h) on L540cy; settings: L540cy, 96 h, read-out: L540cy IC50
Outline: as §1

[12] = tested on: non-small-cell lung cancer cells (Calu1); test: In vitro potency (CellTiter-Glo, 96 h) on Calu1; settings: Homo sapiens, Calu-1, 96 h, read-out: Calu1 IC50
Outline: as §1

[13] = CPT free drugs, CellTiter-Glo after 96 h exposure

SMILES | IC50 [1, 13] [nM] | IC50 [2, 13] [nM] | IC50 [3, 13] [nM] | IC50 [4, 13] [nM] | IC50 [5, 13] [nM] | IC50 [6, 13] [nM] | IC50 [7, 13] [nM] | IC50 [8, 13] [nM] | IC50 [9, 13] [nM] | IC50 [10, 13] [nM] | IC50 [11, 13] [nM] | IC50 [12, 13] [nM] | IC50 [1] [nM] | IC50 [2] [nM] | IC50 ([3]; 96 h) [nM] | IC50 [4] [nM] | IC50 [5] [nM] | IC50 [6] [nM] | IC50 [7] [nM] | IC50 [8] [nM] | also measured
C=C(C)c1ccc2nc3c(c(CN)c2c1)Cn1c-3cc2c(c1=O)COC(=O)[C@]2(O)CC [Compound 33a] | 50 | 28 | 18 | 12 | 18 | 7 | 34 | 258 | 36 | 14 | 21 | 120 | – | – | – | – | – | – | – | – | –
CC[C@@]1(O)C(=O)OCc2c1cc1n(c2=O)Cc2c-1nc1cc3c(cc1c2CN)CCO3 [Compound 2n, (5S)-14-(aminomethyl)-5-ethyl-5-hydroxy-7,20-dioxa-11,24-diazahexacyclo[11.11.0.02,11.04,9.015,23.017,21]tetracosa-1(24),2,4(9),13,15(23),16,21-heptaene-6,10-dione;2,2,2-trifluoroacetic acid] | – | – | – | – | – | – | – | – | – | – | – | – | 3 | 5 | 4 | 1 | 3 | 1 | 5 | 29 | IC50 [9]: 8 nM; IC50 [10]: 1 nM; IC50 [11]: 2 nM; IC50 [12]: 18 nM
CC[C@@]1(O)C(=O)OCc2c1cc1n(c2=O)Cc2c-1nc1cc(F)c(C)c(C3=CCN(C)CC3)c1c2CN [Compound 6l] | 51 | 25 | 29 | 15 | 16 | 6 | 38 | 16 | 177 | 18 | 20 | 73 | – | – | – | – | – | – | – | – | –
CCc1c(C)c(F)cc2nc3c(c(CN)c12)Cn1c-3cc2c(c1=O)COC(=O)[C@]2(O)CC [Compound 10, (S)-11-(aminomethyl)-4,10-diethyl-8-fluoro-4-hydroxy-9-methyl-1,12-dihydro-14H-pyrano[3′,4′:6,7]indolizino[1,2-b]quinoline-3,14(4H)-dione] | – | – | – | – | – | – | – | – | – | – | – | – | 64 | 57 | 33 | 15 | 33 | 7 | 54 | 149 | IC50 [9]: 59 nM; IC50 [10]: 15 nM; IC50 [11]: 51 nM; IC50 [12]: 95 nM
